According to patent US11266715B2, “C3A receptor agonists for use against ischemic brain injury, stroke, traumatic brain injury, spinal cord injury and neurodegenerative disorders” (priority 2016, dated 2022):

Columns and labels:
GAP-43+ puncta = assay: GAP-43 immunostaining of cortex 21 days after stroke; format: in vivo, mouse
Procedure: For immunofluorescent evaluation, sections were deparaffinized, heated three times for 5 min in a microwave oven in 0.01 M citric buffer (pH 6.0), and blocked in PBS containing 0.05% Tween-20 (Sigma) and 1% in Bovine serum albumin (BSA, Sigma) for GAP-43 and synapsin I staining, 3% normal goat serum for VGLUT1 staining or 4% normal donkey serum for GAP-43 double stainings. Goat anti-synapsin la/b antibody (1:150; Santa Cruz, sc-7379) was followed by biotin-conjugated donkey anti-goat immunoglobulin (Ig) secondary antibody (1:200; Jackson Research Lab, 705-065-147) and Cy3-conjugated streptavidin (1:100; Sigma). Guinea pig anti-VGLUT1 (1:500; Millipore, AB5905) was followed by Alexa Fluor 488 goat anti-guinea pig Ig (1:500; Molecular Probes, A11073). For single staining, mouse anti-GAP-43 antibody (1:1000; Millipore, MAB347), was followed by biotinylated rabbit anti-mouse Ig secondary antibody (1:200; Dako, E0354) and Cy3-conjugated streptavidin (1:100; Sigma). […]
Highest signal intensity single plane images of immunostained sections were obtained by laser scanning confocal microscope (LSM TCS SP2, Leica Microsystems, ×63/NA 1.3 objective for synapsin I and GAP-43; and LSM 700, Carl Zeiss for VGLUT1 ×40/NA 1.3) at 1024×1024 pixels resolution. […] Three standard sections per animal in 160 μm intervals were analysed. […]
Single-stained images were analysed using MetaMorph® software (Molecular Devices, ver. 2.8.5) to obtain number, average size and intensity of positive punctuate structures per image. […] An experimenter blinded to experimental group performed all image acquisitions and quantifications.

serum carboxypeptidases = conditions: systemically administered C3a; cited from earlier work

**Q.** With “C3a: Purified human C3a peptide (Complement Technologies), C3a receptor agonist, amino acid sequence SEQ ID NO: 1” as the substance, how does the “increase in density of GAP-43+ puncta, ipsilesional motor cortex vs corresponding contralesional region” value (GAP-43+ puncta; C3a-treated mice, P=0.012) read?
**A.** ~50%

**Q.** What about the “increase in density of GAP-43+ puncta, ipsilesional motor cortex vs ipsilesional cortex of PBS-treated mice” value (GAP-43+ puncta; P=0.015) of the same substance?
**A.** ~50%

**Q.** And the “average size of GAP-43+ puncta” value (GAP-43+ puncta; between experimental groups)?
**A.** did not differ between the experimental groups

**Q.** What about the stability in serum (serum carboxypeptidases) of the same substance?
**A.** rapid inactivation by serum carboxypeptidases
